Where two headings read alike, the source gives them in different places.

Format in all cases: biochemical
The target in one test is T1, FGFR1 (Homo sapiens, UniProt P11362).
T1 construct: cytoplasmic domain [398-822 (terminal) amino acids]; purchased Carna 08-133
The test can be described thus: FGFR1 kinase activity inhibition assay (LanthaScreen TR-FRET). Summed up: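 Emission ratio 520 nm/495 nm by TR-FRET after stopping reaction with 10 mM EDTA and 60 min incubation at 22°C. Inhibition normalized between no-enzyme (min) and DMSO (max) controls, then fitted to a four-parameter curve (Top, Bottom, HillSlope).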
On the technique in general: In TR-FRET formats the signal depends on donor and acceptor labels being close together.

Another test addresses T2, FGFR2 (Homo sapiens, UniProt P21802).
T2 construct: FGFR2's cytoplasmic domain [399-821 (terminal) amino acids]; purchased Carna 08-134
The test can be described thus: FGFR2 kinase activity inhibition assay (LanthaScreen TR-FRET). The method, then: (§1) FGFR1 kinase activity was measured using Invitrogen LanthaScreen™ assay technology, which utilized fluorescently-labeled peptides and terbium-labeled antibodies to directly measure an amount of the phosphorylated substrate through time-resolved fluorescence energy transfer (TR-FRET). • ① The test compounds were diluted: starting from a concentration of 1 µM, with a buffer solution in a three-fold serial dilution, the buffer solution being composed of 50 mM HEPES, 10 mM MgCl2, 0.01% TritonX-100, 0.01% BSA, 4 mM DTT (pH 7.5), and 1% DMSO; • ② 0.01 nM recombinant human GST fusion protein FGFR1's cytoplasmic domain [398-822 (terminal) amino acids] (Carna: 08-133) was formulated into a 2 × solution, mixed well with the test compounds, and incubated at 23°C for 10 minutes; • ③ 28 nM Fluorescein-Poly GT peptide substrate (Life Technologies: PV3611) and 28 µM ATP were formulated into a 2 × solution, mixed well with the test compounds and enzyme in ②, and incubated at 23°C for 30 minutes; • ④ 10 µL of 2nM Tb-PY20 antibody (Life Technologies: PV3552) and 10 mM EDTA were added to quench the kinase reaction, and incubated at 22°C for 60 minutes. • ⑤ The reaction was measured using a PerkinElmer EnVision multimode plate reader through TR-FRET dual wavelength detection. • 1. The RFU values were copied from the Envision program. • 2. The ratio of RFU 520nm/RFU 495nm was calculated. • 3. The value of the ratio was converted to a percentage inhibition value. % Inhibition = (max-data)/(max-min) × 100 [formula]
(§2) "Min" represents the ratio of the control without enzyme, "max" represents the ratio of the DMSO control, and "data" represents the ratio of the compounds in wells with different concentrations.
(§3) "Top" refers to the maximum response, "Bottom" refers to the minimum response, and "HillSlope" refers to the slope of the curve.
According to the same method as that in the FGFR1 kinase activity inhibition assay, the inhibitory activities against FGFR2, FGFR3 and FGFR4 were tested using FGFR2's cytoplasmic domain [399-821 (terminal) amino acids] (Carna: 08-134), FGFR3's cytoplasmic domain [436-806 (terminal) amino acids] (Carna: 08-135) and FGFR4's cytoplasmic domain [460-802 (terminal) amino acids] (Carna: 08-136), respectively. […]

A further test deals with T3, FGFR3 (Homo sapiens, UniProt P22607).
T3 construct: FGFR3's cytoplasmic domain [436-806 (terminal) amino acids]; purchased Carna 08-135
T3 sequence (P22607 436-806): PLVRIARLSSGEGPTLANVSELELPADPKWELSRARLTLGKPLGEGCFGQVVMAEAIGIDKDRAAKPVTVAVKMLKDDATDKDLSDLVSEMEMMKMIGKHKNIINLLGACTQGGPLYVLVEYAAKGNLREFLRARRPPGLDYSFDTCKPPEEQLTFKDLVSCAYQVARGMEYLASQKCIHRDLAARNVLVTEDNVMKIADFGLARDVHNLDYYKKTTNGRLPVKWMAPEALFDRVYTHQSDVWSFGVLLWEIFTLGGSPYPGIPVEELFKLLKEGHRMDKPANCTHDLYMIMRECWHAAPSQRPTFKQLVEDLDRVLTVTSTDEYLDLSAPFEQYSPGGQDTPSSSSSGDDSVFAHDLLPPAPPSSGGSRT
Nature of the test: FGFR3 kinase activity inhibition assay (LanthaScreen TR-FRET). The conditions noted are these: for Selectivity (X) FGFR1/FGFR3: ratio of IC50 FGFR1/FGFR3, selectivity towards FGFR3; for Selectivity (X) FGFR2/FGFR3: ratio of IC50 FGFR2/FGFR3, selectivity towards FGFR3; for Selectivity (X) FGFR4/FGFR3: ratio of IC50 FGFR4/FGFR3, selectivity towards FGFR3. Summed up:
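Read-out is TR-FRET, with the 520 nm/495 nm emission ratio normalised to DMSO (max) and enzyme-free (min) controls. Enzyme was the FGFR3 cytoplasmic domain, residues 436-806. EDTA (10 mM) stopped the reaction, followed by 60 min at 22 °C before reading.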

The next test has as its target T4, FGFR4 (Homo sapiens, UniProt P22455).
T4 construct: FGFR4's cytoplasmic domain [460-802 (terminal) amino acids]; purchased Carna 08-136
Nature of the test: FGFR4 kinase activity inhibition assay (LanthaScreen TR-FRET). To be noted: FGFR4 kinase, TR-FRET; read-out: IC50 (nM) FGFR4. The method, then:
as §1, §2, §3
According to the same method as that in the FGFR1 kinase activity inhibition assay, the inhibitory activities against FGFR2, FGFR3 and FGFR4 were tested using FGFR2's cytoplasmic domain [399-821 (terminal) amino acids] (Carna: 08-134), FGFR3's cytoplasmic domain [436-806 (terminal) amino acids] (Carna: 08-135) and FGFR4's cytoplasmic domain [460-802 (terminal) amino acids] (Carna: 08-136), respectively. Table 1 reports the kinase activity inhibition results and selectivity towards FGFR3 of each compound.

[1] abbreviates: FGFR1 kinase, TR-FRET, read-out: IC50 (nM) FGFR1.
The mark [2] stands for this setting: FGFR2 kinase, TR-FRET, read-out: IC50 (nM) FGFR2.
[3] abbreviates: FGFR3 kinase, TR-FRET, read-out: IC50 (nM) FGFR3.

T1 sequence (P11362 398-822): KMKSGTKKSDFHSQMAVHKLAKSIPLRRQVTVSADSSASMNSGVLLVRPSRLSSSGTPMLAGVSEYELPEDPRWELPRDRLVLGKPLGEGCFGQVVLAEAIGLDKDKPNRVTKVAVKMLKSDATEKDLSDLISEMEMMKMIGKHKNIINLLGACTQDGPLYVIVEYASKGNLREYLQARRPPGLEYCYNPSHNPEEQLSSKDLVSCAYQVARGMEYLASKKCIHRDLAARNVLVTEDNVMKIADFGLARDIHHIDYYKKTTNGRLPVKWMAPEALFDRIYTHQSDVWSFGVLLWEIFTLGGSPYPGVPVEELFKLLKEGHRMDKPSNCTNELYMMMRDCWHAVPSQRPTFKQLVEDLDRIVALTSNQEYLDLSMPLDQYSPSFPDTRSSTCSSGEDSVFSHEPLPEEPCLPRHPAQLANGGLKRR
T2 sequence (P21802 399-821): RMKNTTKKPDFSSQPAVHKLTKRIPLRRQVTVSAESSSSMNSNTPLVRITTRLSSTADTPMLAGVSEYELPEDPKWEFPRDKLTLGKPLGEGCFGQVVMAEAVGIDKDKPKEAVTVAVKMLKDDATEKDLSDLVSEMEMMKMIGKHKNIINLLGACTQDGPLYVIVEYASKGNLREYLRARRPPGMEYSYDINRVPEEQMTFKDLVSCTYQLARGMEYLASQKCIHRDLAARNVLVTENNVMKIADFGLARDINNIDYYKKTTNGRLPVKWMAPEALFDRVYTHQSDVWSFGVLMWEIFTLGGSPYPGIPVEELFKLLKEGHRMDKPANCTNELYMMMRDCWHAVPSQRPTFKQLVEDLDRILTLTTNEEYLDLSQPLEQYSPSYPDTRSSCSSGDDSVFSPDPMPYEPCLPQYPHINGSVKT
T4 sequence (P22455 460-802): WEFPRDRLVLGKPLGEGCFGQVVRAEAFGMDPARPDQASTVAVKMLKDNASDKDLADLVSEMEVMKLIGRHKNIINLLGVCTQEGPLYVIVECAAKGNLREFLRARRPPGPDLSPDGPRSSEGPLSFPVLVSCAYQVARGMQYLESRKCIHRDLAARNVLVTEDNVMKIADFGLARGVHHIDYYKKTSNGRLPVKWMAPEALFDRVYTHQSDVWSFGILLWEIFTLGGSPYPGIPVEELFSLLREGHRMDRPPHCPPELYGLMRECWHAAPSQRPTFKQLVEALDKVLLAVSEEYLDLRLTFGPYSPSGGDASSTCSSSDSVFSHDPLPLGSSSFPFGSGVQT

Consider `C[C@@H](Oc1cc(C(F)(F)F)c2[nH]nc(-c3cnn(C)c3)c2c1)c1c(Cl)cncc1Cl` [Example 1, (R)-5-(1-(3,5-dichloropyridin-4-yl)ethoxy)-3-(1-methyl-1H-pyrazol-4-yl)-7-(trifluoromethyl)-1H-indazole], for which the IC50 at FGFR1 (setting [1]), at FGFR2 (setting [2]) and on FGFR3 (setting [3]) was > 100 nM in each case. At FGFR3, the “Selectivity (X) FGFR1/FGFR3” value was “A (A represents 1 ≤ multiple X<20)”. The “Selectivity (X) FGFR2/FGFR3” value at FGFR3 is “A (A represents 1 ≤ multiple X<20)”.
In the case of `C[C@@H](Oc1ccc2[nH]nc(-c3cnn(C4CCN(C(=O)N(C)C)CC4)c3)c2n1)c1c(Cl)cncc1Cl` [Example 36, (R)-4-(4-(5-(1-(3,5-dichloropyridin-4-yl)ethoxy)-1H-pyrazolo[4,3-b]pyridin-3-yl)-1H-pyrazol-1-yl)-N,N-dimethylpiperidine-1-carboxamide], the IC50 (commonly the concentration that inhibits the measured activity by half) against FGFR1 was 10 to 100 nM. Moreover, the IC50 on FGFR2 lay within 10 to 100 nM. Also, at FGFR3, the IC50 was 1 to 10 nM, the “Selectivity (X) FGFR1/FGFR3” value is on record as “A (A represents 1 ≤ multiple X<20)” and the “Selectivity (X) FGFR2/FGFR3” value was “A (A represents 1 ≤ multiple X<20)”.
`CC(C)N1CCC(n2cc(-c3n[nH]c4ccc(O[C@H](C)c5c(Cl)cncc5Cl)nc34)cn2)CC1` [Example 37, (R)-5-(1-(3,5-dichloropyridin-4-yl)ethoxy)-3-(1-(1-isopropylpiperidin-4-yl)-1H-pyrazol-4-yl)1H-pyrazolo[4,3-b]pyridine]: the IC50 against FGFR1 was in the range of 1 to 10 nM. This compound also registered an IC50 at FGFR2 of 1 to 10 nM. Besides, on FGFR3, the IC50 lay within 1 to 10 nM, the “Selectivity (X) FGFR1/FGFR3” value is on record as “A (A represents 1 ≤ multiple X<20)” and the “Selectivity (X) FGFR2/FGFR3” value is reported as “A (A represents 1 ≤ multiple X<20)”.
Consider `C[C@@H](Oc1ccc2[nH]nc(-c3cnn(CCO)c3)c2n1)c1c(Cl)cncc1Cl` [Example 39, (R)-2-(4-(5-(1-(3,5-dichloropyridin-4-yl)ethoxy)-1H-pyrazolo[4,3-b]pyridin-3-yl)-1H-pyrazol-1-yl)ethan-1-ol], for which the IC50 at FGFR1 (setting [1]) was in the range of 10 to 100 nM; at FGFR2 (setting [2]) it was 1 to 10 nM; at FGFR3 (setting [3]) it was 1 to 10 nM. Also, the “Selectivity (X) FGFR1/FGFR3” value at FGFR3 was “A (A represents 1 ≤ multiple X<20)”. Besides, at FGFR3, the “Selectivity (X) FGFR2/FGFR3” value was “A (A represents 1 ≤ multiple X<20)”.
Regarding `C[C@@H](Oc1ccc2[nH]nc(-c3cnn(CC(F)F)c3)c2n1)c1c(Cl)cncc1Cl` [Example 41, (R)-5-(1-(3,5-dichloropyridin-4-yl)ethoxy)-3-(1-(2,2-difluoroethyl)-1H-pyrazol-4-yl)-1H-pyrazolo[4,3-b]pyridine], the IC50 on FGFR1 (setting [1]), on FGFR2 (setting [2]) and at FGFR3 (setting [3]) was 10 to 100 nM throughout. For the same compound, at FGFR3, the “Selectivity (X) FGFR1/FGFR3” value was “A (A represents 1 ≤ multiple X<20)”. For the same compound, at FGFR3, the “Selectivity (X) FGFR2/FGFR3” value is listed as “A (A represents 1 ≤ multiple X<20)”.
As for `C[C@@H](Oc1ccc2[nH]nc(-c3cnn(C4CC4)c3)c2n1)c1c(Cl)cncc1Cl` [Example 48, (R)-3-(1-cyclopropyl-1H-pyrazol-4-yl)-5-(1-(3,5-dichloropyridin-4-yl)ethoxy)-1H-pyrazino[4,3-b]pyridine], the results for the IC50 at FGFR1 (setting [1]), on FGFR2 (setting [2]) and on FGFR3 (setting [3]) were 10 to 100 nM, 10 to 100 nM and 1 to 10 nM, respectively. Also, the “Selectivity (X) FGFR1/FGFR3” value at FGFR3 is reported as “A (A represents 1 ≤ multiple X<20)”. Moreover, the “Selectivity (X) FGFR2/FGFR3” value on FGFR3 is recorded as “A (A represents 1 ≤ multiple X<20)”.
As to `CNCCNC(=O)c1ccc2[nH]nc(-c3cnn(C)c3)c2c1` [Example 65, 3-(1-methyl-1H-pyrazol-4-yl)-N-(2-(methylamino)ethyl)-1H-indazole-5-carboxamide], the figures for the half-maximal inhibitory concentration (IC50) at FGFR1 (setting [1]), on FGFR2 (setting [2]) and at FGFR3 (setting [3]) were > 100 nM, > 100 nM and 10 to 100 nM, respectively. Moreover, the “Selectivity (X) FGFR1/FGFR3” value at FGFR3 is “B (B represents 20 ≤ multiple X<50)”. For the same compound, the “Selectivity (X) FGFR2/FGFR3” value on FGFR3 is on record as “C (C represents 50 ≤ multiple X<100)”.
For `CC(Oc1ccc2[nH]nc(-c3cnn(C)c3)c2c1)c1cc(C#N)cc2ncccc12` (centres unmarked) [Example 159, 5-(1-((3-(1-methyl-1H-pyrazol-4-yl)-1H-indazol-5-yl)oxy)ethyl)qu inoline-7-carbonitrile], the IC50 on FGFR1 (setting [1]) was > 100 nM; at FGFR2 (setting [2]) it was 10 to 100 nM; at FGFR3 (setting [3]), 1 to 10 nM. The “Selectivity (X) FGFR1/FGFR3” value at FGFR3 was “B (B represents 20 ≤ multiple X<50)”. Besides, at FGFR3, the “Selectivity (X) FGFR2/FGFR3” value is listed as “A (A represents 1 ≤ multiple X<20)”.
Taken in the same sequence, the figures for `CC(Oc1ccc2[nH]nc(-c3cnn(C4CCN(C#N)CC4)c3)c2c1)c1cccc2nccnc12` (centres unmarked) [Example 162, 4-(4-(5-(1-(quinoxalin-5-yl)ethoxy)-1H-indazol-3-yl)-1H-pyrazol-1-yl)piperidine-1-carbonitrile] were 10 to 100 nM, 10 to 100 nM, 1 to 10 nM, “A (A represents 1 ≤ multiple X<20)” and “A (A represents 1 ≤ multiple X<20)”.
Compound `CC(Oc1ccc2[nH]nc(-c3cnn(C4CCN(S(C)(=O)=O)CC4)c3)c2c1)c1cccc2nccnc12` (centres unmarked) [Example 163, 5-(1-((3-(1-(1-(methylsulfonyl)piperidin-4-yl)-1H-pyrazol-4-yl)-1-indazol-5-yl)oxy)ethyl)quinoxaline] yielded an IC50 against FGFR1 of 10 to 100 nM. The compound further had an IC50 at FGFR2 of 10 to 100 nM. In addition, at FGFR3, the IC50 was 1 to 10 nM, the “Selectivity (X) FGFR1/FGFR3” value is recorded as “A (A represents 1 ≤ multiple X<20)” and the “Selectivity (X) FGFR2/FGFR3” value is “A (A represents 1 ≤ multiple X<20)”.
For `CC(Oc1ccc2[nH]nc(-c3cnn(CCCS(C)(=O)=O)c3)c2c1)c1cccc2nccnc12` (centres unmarked) [Example 181, 5-(1-((3-(1-(3-(methylsulfonyl)propyl)-1H-pyrazol-4-yl)-1H-indazol-5-yl)oxy)ethyl)quinoxaline], the IC50 at FGFR1 (setting [1]) was 10 to 100 nM; at FGFR3 (setting [3]), < 1 nM; at FGFR4, 10 to 100 nM. Moreover, the “Selectivity (X) FGFR1/FGFR3” value on FGFR3 is listed as “A (A represents 1 ≤ multiple X<20)”. Moreover, the “Selectivity (X) FGFR4/FGFR3” value at FGFR3 is “A (A represents 1 ≤ multiple X<20)”.
For `CNC1CC(n2cc(-c3n[nH]c4ccc(OC(C)c5cccc6nccnc56)cc34)cn2)C1` (centres unmarked) [Example 182, N-methyl-3-(4-(5-(1-(quinoxalin-5-yl)ethoxy)-1H-indazol-3-yl)-1H-pyrazol-1-yl)c yclobutan-1-amine], the half-maximal inhibitory concentration (IC50) on FGFR1 (setting [1]) was 10 to 100 nM; at FGFR3 (setting [3]) it was 1 to 10 nM; on FGFR4, 10 to 100 nM. The “Selectivity (X) FGFR1/FGFR3” value at FGFR3 was “A (A represents 1 ≤ multiple X<20)”. On FGFR3, the “Selectivity (X) FGFR4/FGFR3” value is listed as “A (A represents 1 ≤ multiple X<20)”.
Turning to `CC(Oc1ccc2[nH]nc(-c3cnn(C)c3)c2c1)c1cccn2ncc(F)c12` (centres unmarked) [Example 184, 5-(1-(3-fluoropyrazolo[1,5-a]pyridin-4-yl)ethoxy)-3-(1-methyl-1H-pyrazol-4-yl)-1H-indazole], the IC50 at FGFR1 (setting [1]) was 10 to 100 nM; at FGFR3 (setting [3]), < 1 nM; at FGFR4, 1 to 10 nM. The “Selectivity (X) FGFR1/FGFR3” value on FGFR3 was “B (B represents 20 ≤ multiple X<50)”. On FGFR3, the “Selectivity (X) FGFR4/FGFR3” value is given as “A (A represents 1 ≤ multiple X<20)”.

(Values after patent publication EP4644383A1 (Jiangsu Yahong Meditech Co., Ltd., priority 2022, dated 2024).)
